Measured values as given in patent US20040077664A1, “Pharmaceutical formulation comprising pyrazolo[4,3-d]pyrimidine and nitrates or thienopyrimidines and nitrates” (priority 2001, published 2004).
Structures can show the parent of a compound that is named as a salt.

melting point	Compound
135 °C	COc1ccc(CNc2nc(CCC(=O)O)nc3sc4c(c23)CCCC4)cc1Cl (as salt: salt) [Example 2 (formula I-I), 3-[4-(3-chloro-4-methoxybenzylamino)-5,6,7,8-tetrahydro-[1]-benzothieno[2,3-d]pyrimidin-2-yl]propionic acid]
178 °C	CCCc1nn(C)c2c(NCc3ccc(OC)c(Cl)c3)nc(CCC(=O)O)nc12 [Example 2 (formula I), 3-[7-(3-chloro-4-methoxybenzylamino)-1-methyl-3-propyl-1H-pyrazolo-[4,3-d]pyrimidin-5-yl]propionic acid]
229 °C	COc1ccc(CNc2nc(CCC(=O)O)nc3sc4c(c23)CCCC4)cc1Cl [Example 2 (formula I-I), 3-[4-(3-chloro-4-methoxybenzylamino)-5,6,7,8-tetrahydro-[1]-benzothieno[2,3-d]pyrimidin-2-yl]propionic acid]
218 °C	COc1ccc(CNc2nc(CCC(=O)O)nc3sc4ccccc4c23)cc1Cl [Example 2 (formula I-II), 3-[4-(3-chloro-4-methoxybenzylamino)benzothieno[2,3-d]pyrimidin-2-yl]propionic acid]
203 to 204 °C	COC(=O)c1ccc(-c2nc(NCc3ccc(OC)c(Cl)c3)c3c(n2)sc2ccccc23)cc1 [Example 3 (formula I-II), methyl 4-[4-(3-chloro-4-methoxybenzylamino)-[1]-benzothieno[2,3-d]pyrimidin-2-yl]benzoate]
